Read-outs that look alike come from different tables or passages of the source.
Tested on: Influenza virus
Details: mice, ninth day

NC(=O)c1ncn([C@@H]2O[C@H](CO)[C@@H](O)[C@H]2O)n1 [RIBAVIRIN]
% PROTECTION (LUNG LESIONS) TEST (1.6 mg/kg (31 mcg/mouse) I.N., Wilcoxon * p < 0.01, ° p < 0.025): 15% | % PROTECTION (LUNG LESIONS) TEST (100 mg/kg (2000 mcg/mouse) P.OS, * p < 0.01 Wilcoxon): 27%
